Assay results as given in publication PMC10470319 (iScience, 2023).
“Also recorded” adds a separate entry of the source.

Legend:
SARS-CoV-2 Mpro [1] = target: T1, SARS-CoV-2 Mpro (Severe acute respiratory syndrome coronavirus 2, UniProt P0DTD1); assay type: biochemical
SARS-CoV-2 Mpro [2] = target: T1, SARS-CoV-2 Mpro; assay: biochemical; settings: for inhibition of Mpro in the initial screen: 17 μM
SARS-CoV-2 [3] = assay type: cell-based
SARS-CoV-2 [4] = settings: read-out: IC50 for inhibition of SARS-CoV-2 replication; cited from earlier work
Calu-3 cells = settings: cited from earlier work
SARS-CoV-2 Mpro [5] = target: T1, SARS-CoV-2 Mpro; assay type: biochemical; remark: listed apart in the source
SARS-CoV-2 infection = settings: in vivo; cited from earlier work

Structure (SMILES) | reversibility of Mpro inhibition on dilution (SARS-CoV-2 Mpro [1]) | inhibition of Mpro in the initial screen (SARS-CoV-2 Mpro [2]) | inhibition of SARS-CoV-2 replication (in words) (SARS-CoV-2 [3]) | inhibition of Mpro activity, mass spectrometry assay (SARS-CoV-2 Mpro [5]) | also measured
O=c1c(O)c(-c2cc(O)c(O)c(O)c2)oc2cc(O)cc(O)c12 [Myricetin, reference compound] | irreversible | showed inhibition | inhibits SARS-CoV-2 replication | – | –
O=c1cc(-c2ccc(O)cc2)oc2cc(O)cc(O)c12 [apigenin] | reversible | – | slightly better than baicalein at 50 μM; also recorded: inhibits viral replication at concentrations that are not toxic | – | IC50 (SARS-CoV-2 [4]): 5.11 ± 0.26 µM; IC50 (SARS-CoV-2 Mpro [2]): 20 ± 9 µM; toxicity in cell culture (Vero E6 cells): some toxicity; CC50 (Calu-3 cells): 302 ± 15 µM
O=c1c(-c2c(O)cc(O)c3c(=O)cc(-c4ccc(O)cc4)oc23)c(-c2ccc(O)cc2)oc2cc(O)cc(O)c12 [3,8'-Biapigenin] | – | – | – | completely inhibited | –
O=c1cc(-c2ccc(O)c(-c3c(O)cc(O)c4c(=O)cc(-c5ccc(O)cc5)oc34)c2)oc2cc(O)cc(O)c12 [Amentoflavone] | reversible | – | – | completely inhibited | –
O=c1cc(-c2ccccc2)oc2cc(O)c(O)c(O)c12 [Baicalein, reference compound] | reversible | showed inhibition | inhibited SARS-CoV-2 infection | – | body weight after SARS-CoV-2 infection (SARS-CoV-2 infection): prevented reduction in body weight; lung injury resulting from SARS-CoV-2 infection (SARS-CoV-2 infection): decreased lung injury
O=C1C[C@@H](c2ccccc2)Oc2cc(O)cc(O)c21 [pinocembrin] | – | – | – | – | inhibition of Mpro (in words) (SARS-CoV-2 Mpro [2]): relatively poor inhibition
